# According to patent US8901276B2, “Peptide reagents and methods for detection of colon dysplasia” (The Regents of the University of Michigan, priority 2010, dated 2014):
# “Also recorded” adds a separate entry of the source.
# Tests used:
# HT29 cells [1] = test: Fluorescence microscopy of FITC-labeled peptides; type: cell-based, human; conditions: 10 μM; for internalization within HT29 cells: 37° C.; for binding to the surface of HT29 cells: 15 min, 4° C.
# Method: Preferential binding of the FITC-Peptide 2 and FITC-Control peptide 2 to target and non-target cells was also validated via fluorescence microscopy. HT29 and Hs738.St/Int. cells were grown in 22 mm2 cover slips with ˜80% confluence. Blocking of non-specific binding was performed by adding PBS/0.5% BSA for 30 min. The cells were then incubated with 10 μM of FITC-Peptide 2 or FITC-Control peptide 2 either at 4 or 37° C. for 15 min followed by 1 μg/mL Hoechst dye (Sigma Aldrich, St. Louis, Mo.) along with the peptide. The cells were washed with PBS for 3 times and fixed with 4% paraformaldehyde at room temperature for 10 min. After fixation, the cells were washed again with PBS (1×) and mounted with ProLong® Gold reagent (Invitrogen, Carlsbad, Calif.) and the fluorescence images were acquired with Leica Confocal system. (Leica Microsystems GMBH, Wetzlar, 35578 Germany)
# In addition, the ability of the FITC-Peptide 2 peptide to internalize within the HT29 cells was tested. HT29 cells were incubated for 15 min. at either 4° C. or 37° C. in the presence of 10 μM FITC-Peptide 2.
# Preferential binding of the FITC-labeled candidate and control peptides to the target and non-target cells was further validated via fluorescence microscopy. HT29 and Hs738.St/Int. cells were grown on cover slips to ˜80% confluence. Blocking of non-specific binding was performed by adding PBS/0.5% BSA for 30 min. The cells were then incubated with 10 μM of 5-FITC-labeled candidate or control peptide at either 4 or 37° C. for 15 min followed by staining with 1 μg/mL Hoechst dye (Sigma Aldrich, St. Louis, Mo.) along with the peptide. The cells were washed 3× with PBS and fixed with 4% paraformaldehyde at RT for 10 min. After fixation, the cells were washed again with PBS and mounted with ProLong Gold reagent (Invitrogen, Carlsbad, Calif.) and fluorescence images were collected with confocal microscopy (Leica TCS SP5 Microsystems, Bannockburn, Ill.).
# HT29 cells [2] = test: Determination of binding constant (plate reader fluorescence); parameters: species or system human
# Method: The binding affinity of FITC-Peptide 2 to HT29 cells (1×10^5) was determined using various concentrations of the peptide. The fluorescence intensity of the peptide bound to the HT29 cells was measured at saturation. Then, the FITC-labeled peptide was serially diluted in PBS at concentrations that varied from 0 to 70 μmol/L and incubated with 1×10^5 HT29 cells at 4° C. for 1 hr. After washing 3 times with cold PBS/0.2% Tween 20 solution, the unbound peptide was rinsed off. The cells were resuspended in 200 μL PBS and transferred to a 96 well plate. The fluorescence intensity I was measured at 525 nm using 485 nm as the excitation wavelength on a multi-well plate reader (CytoFluor Series 4000; Applied Biosystems Inc, Foster City, Calif.). Binding of the peptide to the cells was calculated using the peptide emission intensity with the same concentration without the cells present. The peptide equilibrium dissociation constant Kd=1/Ka was calculated by performing a least squares fit of the data to the non-linear equation I=(I0+ImaxKa[X])/(I0+Ka[X]). I0 and Imax are the initial and maximum fluorescence intensities, corresponding to no peptide and at saturation, respectively, and [X] represents the concentration of the bound peptide. Origin 6.1 data analysis software (Origin Lab Corp, Northampton, Mass.) was used to fit the equation for non-linear least square fitting. […]
# [3] = tested on: human colonic mucosa sections (normal, dysplasia, adenocarcinoma); test: Peptide immunohistochemistry on frozen sections (Example 11); conditions: for target-to-background (T/B) ratio KCCFPAQ peptide vs. control peptide: frozen sections; for fluorescence intensity on immunohistochemistry: mean±SEM
# Method: All specimens were obtained with approval from the University of Michigan Institutional Review Board (IRB). Freshly resected specimens of human colonic mucosa were frozen in OCT and sectioned with 10 μm thickness. The sections were then air dried, washed with PBS, and incubated with the FITC-labeled peptides at a concentration of 10 μM for 15 min at RT. The sections were washed 3× for 1 min in PBS and fixed with 4% paraformaldehyde for 10 min. After fixation, the sections were washed again and mounted with ProLong Gold reagent with DAPI (Invitrogen, Carlsbad, Calif.). The sections were imaged under a confocal microscope (Leica TCS SP5 Microsystems, Bannockburn, Ill.). Adjacent sections were sent for routine histology. The intensity for each image was calculated using Matlab (Mathworks, Natick, Mass.).
# colonic adenomas = test: In vivo imaging with non-scanning endoscope, FITC-labeled peptides; parameters: species or system CPC; Apc mice; conditions: Non-scanning Endoscopy Results; FITC label; mean ± SD
# Excerpt: Specific binding of the candidate peptides to primary dysplastic colonic epithelial cells were validated on flow cytometry ex vivo and with small animal endoscopy in vivo using FITC-labeled peptides using a non-scanning white light endoscope.
substance,measurement,setting,value
"KCCFPAQ-FITC [FITC-Peptide 2, KCCFPAQ with FITC at the C-terminus on the side chain of lysine residue via GGGSK linker]",internalization within HT29 cells,HT29 cells [1],diffuse staining throughout the cells
same,internalization within HT29 cells,HT29 cells [1]; listed as KCCFPAQ peptide,diffuse peptide staining throughout the cells
same,binding to the surface of HT29 cells,HT29 cells [1],binds to the surface of the HT29; also recorded: confined to the cell surface
same,binding to the surface of HT29 cells,HT29 cells [1]; listed as KCCFPAQ peptide,binds to the surface of the HT29 cells
same,Kd,"HT29 cells [2]; FITC-labeled peptide 0 to 70 μM, 4° C., 1 hr, R^2=0.988",0.065 µM
same,Kd,HT29 cells [2]; summary of results,0.065 µM
same,binding to adenocarcinoma compared to normal mucosa,[3],3.1 times
same,binding to adenocarcinoma relative to dysplasia,[3],1.5 fold
same,binding to normal colonic mucosa,"[3]; 10 μM, 15 min, RT",no binding
same,staining of dysplasia and adenocarcinoma,"[3]; 10 μM, 15 min, RT",consistently stains
same,target-to-background (T/B) ratio KCCFPAQ peptide vs. control peptide,[3]; adenocarcinoma,3.6
same,fluorescence intensity on immunohistochemistry,[3]; adenocarcinoma,31.5±6.0 AU
same,target-to-background (T/B) ratio KCCFPAQ peptide vs. control peptide,[3]; dysplasia,3.1
same,fluorescence intensity on immunohistochemistry,[3]; dysplasia,21.1±3.8 AU
same,target-to-background (T/B) ratio KCCFPAQ peptide vs. control peptide,[3]; normal mucosa,2.0
same,fluorescence intensity on immunohistochemistry,[3]; normal mucosa,10.1±3.6 AU
same,Average T/B,colonic adenomas,1.69 ± 0.70
